In patent publication US12275731B2, “Azaindole inhibitors of wild-type and mutant forms of LRRK2” (DANA-FARBER CANCER INSTITUTE, INC., priority 2018, dated 2025):

Tests used:
Experiment in all cases: KinomeScan profiling
Assay type in all cases: binding
SGK = biological target: T1, SGK (Homo sapiens, UniProt O00141); conditions: read-out: % control
T1 construct: purchased KinomeScan® (panel service)
T1 sequence (O00141 1-431): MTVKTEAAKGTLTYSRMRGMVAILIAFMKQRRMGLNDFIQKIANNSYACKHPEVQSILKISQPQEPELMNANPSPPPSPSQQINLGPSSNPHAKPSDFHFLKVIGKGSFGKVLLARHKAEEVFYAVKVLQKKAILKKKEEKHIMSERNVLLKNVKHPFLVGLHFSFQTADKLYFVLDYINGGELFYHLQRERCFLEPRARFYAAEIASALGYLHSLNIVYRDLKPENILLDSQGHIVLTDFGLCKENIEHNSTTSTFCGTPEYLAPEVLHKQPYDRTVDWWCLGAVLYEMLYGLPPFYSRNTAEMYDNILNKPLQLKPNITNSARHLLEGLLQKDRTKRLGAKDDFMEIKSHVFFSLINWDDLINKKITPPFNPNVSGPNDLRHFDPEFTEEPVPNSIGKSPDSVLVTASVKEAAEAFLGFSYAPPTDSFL
Description: (§1) The kinase selectivity of inventive compounds 77, 96 and 101 was evaluated by KinomeScan®. KinomeScan® analysis was performed against a near comprehensive panel of 468 kinases. The control percentage (% control) for inventive compounds at 1 μM in DMSO was determined by Equation 1: % control=(inventive compound−positive control)/(negative control−positive control)×100%, Equation 1
(§2) wherein the positive control is a compound with a % control value of 0% relative light units (RLU), and the negative control (i.e., DMSO) has % control value of 100% RLU. The enzyme selectivity in the present invention is defined as follows: inventive compounds are considered active for an enzyme when the observed % control is less than 35% (<35%).

AAK1 = biological target: T2, AAK1 (Homo sapiens, UniProt Q2M2I8); conditions: AAK1, 1 μM; read-out: % control
T2 construct: purchased KinomeScan®
Description: as §1, §2

YSK4 = biological target: T3, YSK4 (Homo sapiens, UniProt Q56UN5); conditions: YSK4, 1 μM; read-out: % control
T3 sequence (Q56UN5 1-1328): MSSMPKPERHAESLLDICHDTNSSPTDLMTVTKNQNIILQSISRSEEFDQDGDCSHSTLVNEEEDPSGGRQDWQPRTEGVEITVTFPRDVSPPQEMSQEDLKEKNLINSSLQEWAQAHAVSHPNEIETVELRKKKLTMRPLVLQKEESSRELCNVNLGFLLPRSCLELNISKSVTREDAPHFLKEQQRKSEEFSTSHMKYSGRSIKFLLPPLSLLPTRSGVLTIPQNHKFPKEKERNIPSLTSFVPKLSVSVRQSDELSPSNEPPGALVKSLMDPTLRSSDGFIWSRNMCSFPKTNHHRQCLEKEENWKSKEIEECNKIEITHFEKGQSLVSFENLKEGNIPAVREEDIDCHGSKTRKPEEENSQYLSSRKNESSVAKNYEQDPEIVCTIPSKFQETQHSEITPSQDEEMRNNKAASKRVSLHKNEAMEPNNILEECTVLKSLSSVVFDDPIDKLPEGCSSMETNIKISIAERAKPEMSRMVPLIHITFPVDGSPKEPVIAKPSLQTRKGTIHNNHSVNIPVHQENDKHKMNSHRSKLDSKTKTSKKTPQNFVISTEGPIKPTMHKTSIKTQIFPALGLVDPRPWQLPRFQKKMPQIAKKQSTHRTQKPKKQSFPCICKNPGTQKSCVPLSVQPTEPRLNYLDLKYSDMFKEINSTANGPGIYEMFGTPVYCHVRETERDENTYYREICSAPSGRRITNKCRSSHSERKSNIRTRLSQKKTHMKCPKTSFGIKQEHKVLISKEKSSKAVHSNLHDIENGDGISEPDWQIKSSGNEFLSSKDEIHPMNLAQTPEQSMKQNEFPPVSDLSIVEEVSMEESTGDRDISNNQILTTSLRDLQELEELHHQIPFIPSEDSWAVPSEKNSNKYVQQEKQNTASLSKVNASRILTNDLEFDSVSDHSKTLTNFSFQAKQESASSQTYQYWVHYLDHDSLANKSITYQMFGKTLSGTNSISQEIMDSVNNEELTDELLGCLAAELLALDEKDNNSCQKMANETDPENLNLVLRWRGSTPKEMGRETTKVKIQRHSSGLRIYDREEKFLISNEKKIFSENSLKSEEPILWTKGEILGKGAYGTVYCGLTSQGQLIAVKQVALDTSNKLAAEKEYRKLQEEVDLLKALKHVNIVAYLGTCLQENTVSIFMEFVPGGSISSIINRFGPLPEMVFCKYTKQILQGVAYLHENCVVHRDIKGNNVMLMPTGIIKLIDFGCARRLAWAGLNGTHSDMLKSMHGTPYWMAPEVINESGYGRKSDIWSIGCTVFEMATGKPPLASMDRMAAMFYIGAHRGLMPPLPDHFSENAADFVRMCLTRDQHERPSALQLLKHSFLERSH
Description: as §1, §2

NEK7 = NEK7 (Homo sapiens, UniProt Q8TDX7); conditions: NEK7, 1 μM; read-out: % control
Description: as §1, §2

PRKG2 = biological target: T4, PRKG2 (Homo sapiens, UniProt Q13237); conditions: PRKG2, 1 μM; read-out: % control
T4 sequence (Q13237 1-762): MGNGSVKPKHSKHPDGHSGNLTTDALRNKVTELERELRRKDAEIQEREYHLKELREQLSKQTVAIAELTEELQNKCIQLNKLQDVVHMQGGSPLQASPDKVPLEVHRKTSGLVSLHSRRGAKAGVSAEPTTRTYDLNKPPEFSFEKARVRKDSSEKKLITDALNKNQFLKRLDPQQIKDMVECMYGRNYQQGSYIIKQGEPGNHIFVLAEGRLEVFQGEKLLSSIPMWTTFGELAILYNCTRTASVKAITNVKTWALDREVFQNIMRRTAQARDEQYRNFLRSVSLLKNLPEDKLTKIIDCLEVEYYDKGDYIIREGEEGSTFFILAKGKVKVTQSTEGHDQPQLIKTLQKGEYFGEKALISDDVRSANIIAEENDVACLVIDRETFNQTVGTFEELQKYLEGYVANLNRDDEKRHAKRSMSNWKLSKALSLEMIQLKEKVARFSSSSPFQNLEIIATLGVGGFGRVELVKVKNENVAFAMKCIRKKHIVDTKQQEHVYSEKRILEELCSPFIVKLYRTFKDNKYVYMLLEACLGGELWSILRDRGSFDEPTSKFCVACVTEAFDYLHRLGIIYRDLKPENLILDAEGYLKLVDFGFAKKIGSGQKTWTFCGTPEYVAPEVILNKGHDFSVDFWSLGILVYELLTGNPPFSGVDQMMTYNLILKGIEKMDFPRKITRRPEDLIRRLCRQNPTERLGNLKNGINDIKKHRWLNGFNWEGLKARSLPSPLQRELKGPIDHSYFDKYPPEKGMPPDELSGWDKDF
Description: as §1, §2

Chain of NEK7 (Q8TDX7 whole entry): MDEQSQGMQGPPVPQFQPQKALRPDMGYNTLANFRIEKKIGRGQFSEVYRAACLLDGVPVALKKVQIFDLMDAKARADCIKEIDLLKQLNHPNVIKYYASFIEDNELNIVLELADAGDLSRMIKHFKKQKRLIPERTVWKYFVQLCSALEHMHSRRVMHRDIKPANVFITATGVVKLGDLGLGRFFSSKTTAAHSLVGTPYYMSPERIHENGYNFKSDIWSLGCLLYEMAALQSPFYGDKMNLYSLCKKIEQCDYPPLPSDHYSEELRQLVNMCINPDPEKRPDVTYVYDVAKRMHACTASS
T2 sequence (Q2M2I8 whole entry): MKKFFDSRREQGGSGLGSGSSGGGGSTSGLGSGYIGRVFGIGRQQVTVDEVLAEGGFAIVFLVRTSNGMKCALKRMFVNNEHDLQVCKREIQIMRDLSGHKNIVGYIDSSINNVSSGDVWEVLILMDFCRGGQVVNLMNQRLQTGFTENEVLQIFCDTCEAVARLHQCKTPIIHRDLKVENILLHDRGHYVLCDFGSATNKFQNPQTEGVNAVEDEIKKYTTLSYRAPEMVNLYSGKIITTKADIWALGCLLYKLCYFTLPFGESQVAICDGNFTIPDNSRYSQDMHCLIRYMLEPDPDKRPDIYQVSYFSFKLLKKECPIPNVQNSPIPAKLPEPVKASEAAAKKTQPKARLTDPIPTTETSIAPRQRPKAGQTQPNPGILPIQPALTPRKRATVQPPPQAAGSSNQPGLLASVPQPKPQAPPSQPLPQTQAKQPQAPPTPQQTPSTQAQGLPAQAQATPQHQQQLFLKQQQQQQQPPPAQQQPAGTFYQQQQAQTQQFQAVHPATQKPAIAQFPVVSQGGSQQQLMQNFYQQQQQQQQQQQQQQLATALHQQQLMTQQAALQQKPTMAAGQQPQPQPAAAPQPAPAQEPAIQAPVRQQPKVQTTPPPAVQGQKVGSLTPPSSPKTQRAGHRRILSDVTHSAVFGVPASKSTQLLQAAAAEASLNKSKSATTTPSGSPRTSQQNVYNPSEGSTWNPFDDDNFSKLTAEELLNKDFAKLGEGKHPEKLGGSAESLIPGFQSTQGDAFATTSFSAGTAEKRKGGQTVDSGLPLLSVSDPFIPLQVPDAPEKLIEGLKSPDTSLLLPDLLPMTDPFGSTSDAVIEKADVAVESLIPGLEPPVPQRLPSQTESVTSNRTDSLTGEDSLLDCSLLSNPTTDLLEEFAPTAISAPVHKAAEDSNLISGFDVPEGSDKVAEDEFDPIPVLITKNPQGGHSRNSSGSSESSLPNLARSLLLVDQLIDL

Row | Compound | remaining binding at 1 µM (SGK) [%] | remaining binding at 1 µM (AAK1) [%] | remaining binding at 1 µM (YSK4) [%] | remaining binding at 1 µM (NEK7) [%] | remaining binding at 1 µM (PRKG2) [%]
1 | O=C(c1ccc(-c2cnc3[nH]cc(Cl)c3c2NC2CCCC2)cc1)N1CCC(N2CCOCC2)CC1 [Compound 101, (4-(3-chloro-4-(cyclopentylamino)-1H-pyrrolo[2,3-b]pyridin-5-yl)phenyl)(4-morpholinopiperidin-1-yl)methanone] | 86 | 67 | 63 | 95 | 100
2 | CNc1c(-c2cnn([C@H]3CCN(C(C)=O)C[C@@H]3F)c2)cnc2[nH]cc(Cl)c12 [Compound 77, 1-((3S,4S)-4-(4-(3-chloro-4-(methylamino)-1H-pyrrolo[2,3-b]pyridin-5-yl)-1H-pyrazol-1-yl)-3-fluoropiperidin-1-yl)ethan-1-one] | 17 | 36 | 2.6 | 100 | 100
3 | CNc1c(-c2ccc(C(=O)N3CCC(N4CCOCC4)CC3)cc2)cnc2[nH]cc(Cl)c12 [Compound 96, (4-(3-chloro-4-(methylamino)-1H-pyrrolo[2,3-b]pyridin-5-yl)phenyl)(4-morpholinopiperidin-1-yl)methanone] | 7.3 | 23 | 2.2 | 100 | 100
